# Literature values in EP2837390A1, “Combined Pharmaceutical Preparation for Use in Treating Neuromuscular Disorders” (Universitäts-Kinderspital beider Basel, priority 2013, dated 2015).
# System: mdx mice model
# Conditions: long term supplementation for 17-months
smiles,measurement,value
N=C(N)NCCC[C@H](N)C(=O)O [L-arginine],muscle fibrosis,increased
same,muscle function,worsened
same,skeletal deformities,increased
